Values joined by “and” are separate entries in the source; they are usually repeats but may differ in a detail not shown here. Equal entries are not always repeated.
Experiments:
[1] = test system: SW982; assay: Synovial toxicity (CellTiter-Glo), with or without TNF-α
[2] = test system: MMP-13; assay: MMP-13 ELISA on supernatants of TNF-α-treated chondrogenic pellets; type: cell-based, human
[3] = Comparison of in vitro screens: overlapping effective and nontoxic range;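 also: compares non-toxic ranges in synovial cells and chondrocytes with effective ranges against NFkB, MMP-13 and osteoclasts, giving their overlap as the predicted efficacy range in uM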
[4] = test system: Normal human articular chondrocytes; assay: Cytotoxicity to chondrogenic pellets (CellTiter-Blue)
[5] = test system: MIA rat model of OA; assay: MIA trial 3 digital Randall-Selitto test (weekly i.a. clonidine 4.5 μg, tacrolimus 30 ng, fluocinolone 15 ng, meloxicam 100 μg, tranilast 500 ng, TH 150 μg; clonidine 100 μg/kg s.c.); type: in vivo
Protocol: The digital Randall-Selitto (dRS) test is said to be a reliable and repeatable measure of neuropathic, bone, and inflammatory pain behavior in several different models, including those of arthritic or joint pain [29, 31, 32]. Baseline and posttreatment values were evaluated using a dRS test device (IITC Life Science, Woodland Hills, CA, USA). Animals were allowed to acclimate to the testing room before all experimentation and for a minimum of 30 minutes before testing. To ensure that their hind limbs were accessible, the animals were gently suspended in a restraint sling. The joint compression threshold was measured once at each time point for the ipsilateral and contralateral knee joints. Pressure was applied gradually over approximately 10 seconds to the medial and lateral aspects of the knee joint. Measurements were taken from the first observed behavior of vocalization, struggle, or withdrawal. A cutoff value of 600 g was used to prevent injury to the animal.
Following isoflurane anesthesia, 50 μl (2 mg) of MIA was injected into the synovial space of the left knee. Animals were randomly assigned to groups, and pain behavior was assessed 7, 14, 21, and 28 days following MIA injection and intervention using WB with the Stoelting incapacitance meter (trial 1) or the dRS test (trials 2 and 3). […] Animals received MIA treatment and then saline control or therapeutic. […] Histopathology was performed at each time point and at study termination. All studies were conducted in accordance with the International Association for the Study of Pain Guidelines and were approved by the Algos Therapeutics, Inc. Institutional Animal Care and Use Committee (IACUC) before initiation. Those running the studies were blind to the treatments. See Additional file 1 for further details. […]
struggle or withdrawal. A cut-off value of 600 g was used to prevent injury to the animal. The mean and standard error of the mean (SEM) were determined for each treatment group.
Statistical significance was assigned as p ≤ 0.05. The stability of the vehicle group over time was assessed on each testing day (Days 7, 14, 21, and 28) using repeated measures one-way analysis of variance (ANOVA) comparing joint compression thresholds at each experimental time point on a given testing day versus that testing day’s pre-treatment value. Osteoarthritis-related pain in the vehicle group was estimated at each time point on each testing day by comparing ipsilateral (injured) to contralateral (normal) joint compression thresholds using paired t-tests. The progression of osteoarthritis-related pain in the vehicle group was estimated by comparing pre-treatment joint compression thresholds on each testing day versus pre-MIA measurements using repeated measures one-way ANOVA. […]
thresholds at each experimental time point on a given testing day with vehicle treated animals using an unpaired t-test. The acute effect of Tacrolimus was analyzed by comparing joint compression thresholds at each time point on a given testing day with the corresponding pre-treatment baseline values using repeated measures one-way ANOVA and compared to vehicle treated animals using […]
values using repeated measures one-way ANOVA. Chronic effects were analyzed by comparing pre-treatment joint compression thresholds on each testing day versus the appropriate Day 7 pre-treatment values using repeated measures one-way ANOVA and by comparing pre-treatment joint compression thresholds with vehicle treated animals on each testing day using an unpaired t-test or one-way ANOVA. Day 7 pre-treatment joint compression thresholds between all groups were assessed using one-way ANOVA. The Dunnett’s multiple comparison post hoc test was used when […]
dosing were housed three per cage. Animals had free access to food and water and were maintained […]
The animal colony was maintained at approximately 21 °C. All experiments were conducted in accordance with the International Association for the Study of Pain Guidelines.

[6] = test system: MIA rat model of OA; assay: MIA trial 3 histopathology (same doses as dRS test); type: in vivo; design: key to Cartilage matrix damage score: 5-point cartilage matrix score; key to Mean of all cartilage loss: approximate % loss, mean of four articular surfaces; Subchondral bone sclerosis: scale not given here
Description: For MIA trial 3, joints were fixed and toluidine blue–stained sections of the rat knees were comprehensively analyzed from test and control subjects as detailed in Additional file 1. Briefly, a 5-point cartilage matrix score was derived based upon (1) approximate percentage of total loss of articular chondrocytes for each of four articular surfaces, (2) estimated proteoglycan loss (via Safranin O staining), and (3) loss of interstitial matrix. Chondrocyte necrosis and proteolytic degeneration of the femurs were scored on a 5-point scale as in trial 1. A femoral cartilage degeneration score and a three-zone sum of the tibial cartilage degeneration scores (mean of three levels) were also summed to create a total cartilage degeneration score. The mean osteophyte score for each joint was added to this value to create a total joint score with matrix. Other parameters assessed included synovial membrane inflammation and proliferation. Representative images from each group were also collected (see, e.g., Fig. 4 and Additional file 1: Fig. S55, Trial 3). […]
Hawes, APS, Pathologist). Treatments were masked during the assessment. Chondrocyte necrosis and proteolytic degeneration of the femurs were scored on a 5 point scale with 0 = None; 1 = <10%; […]
For the histopathology of the MIA model in Trial 3, completed by Bolder BioPATH (and Dr.
Bendele), a tolouidine blue stained slide containing both halves of the joint was comprehensively analyzed from test and control subjects. Approximate % of total loss of articular chondrocytes, loss of proteoglycan and loss of collagenous matrix were determined for each articular surface (medial tibial plateau (MTP), lateral tibial plateau (LTP), medial femoral condyle (MFC), and lateral femoral condyle (LFC). Chondrocyte loss was quantified by estimating the area of cartilage in which there were no apparently viable chondrocytes and proteoglycan loss was quantified by estimating differences in intensity of toluidine blue matrix staining. Loss of interstitial matrix was an indication of disruption and diminished type II collagen. Based on the mean % loss for the four surfaces in these parameters, a five point matrix score was utilized with the subchondral bone resorption, subchondral bone sclerosis and osteophyte scores to achieve a total joint score. […]
[…] steps, stained with toluidine blue (with a right and left halve per section), and analyzed for cartilage degeneration, proteoglycan loss, collagen damage, and osteophyte formation. Results were averaged across the 3 sections for an overall semi-quantitative score. Regional differences across the tibial plateau were taken into consideration by dividing each section into 3 zones delineated using an ocular micrometer (outside, middle, and inside). Scores were based on the percentage of area affected within the zone.
Cartilage degeneration in the tibia was scored on a five point scale for each zone, collagen damage across the medial tibial plateau was measured by total width for each grade damage. Cartilage degeneration in the tibia was scored none to severe (numerical values 0-5) for each zone (area defined by micrometer) using the following criteria: […]

[7] = test system: RAW 264.7 cells; assay: RANKL-mediated osteoclastogenesis / matrix resorption (Osteologic) assay; type: cell-based, murine
Protocol: RAW 264.7 cells (American Type Culture Collection [ATCC], Manassas, VA, USA), a murine monocytic cell line that differentiates in the presence of RANKL, was used for measurements of osteoclastogenesis and osteoclast activity. Cells were amplified on nonadherent culture substratum in high-glucose Dulbecco’s modified Eagle’s medium (DMEM) containing 10 % fetal bovine serum (FBS) and penicillin-streptomycin in a 37 °C, 5 % CO2, humidified incubator and were passaged by manual dissociation. […] Plates were subsequently rinsed, bleached, dried, and analyzed for matrix degradation using a Nikon COOLSCOPE (Nikon Instruments, Melville, NY, USA). Matrix resorption was quantified using EclipseNet (Nikon Instruments)/Visiopharm (Visiopharm, Hørsholm, Denmark) software (see Additional file 1).
In Vitro Osteoclastogenesis
Osteoclastogenic activity was measured using BD osteologic plates and quantitation of the degree of bone matrix digestion on the plate surface. Images from the BD Osteologic assay used to […]
left pane depicts an example of a control well after removal of cells from matrix. Pseudocoloring of matrix (blue) and pits (green) is shown in the far right pane. A transparent overlay of the two images is shown in the center.
Figure 5 - Measurement of drug effects on osteoclastogenesis and osteoclast activity.
Comparisons were made between RANKL treated control wells and wells treated with both RANKL and […]
Agents were initially tested either during differentiation or post differentiation in the bone assay […]
(e.g., Figure 2, Sulfazalazine). […]
indicated (*/**: p < 0.05/0.01, unpaired t-test versus RANKL control). […]

## Cc1cnc(NC(=O)C2=C(O)c3ccccc3S(=O)(=O)N2C)s1 [Meloxicam]
[1]
  Non-toxic range (Synovial): 0.25 to 16 µM
[2]
  Effective range against MMP-13: Not effective
[3]
  Non-toxic & predicted range of efficacy: 16 to 32 µM
[3]; inhibits with minimal or no toxicity to synovium or cartilage, overlapping range if effective in more than one assay
  Overlapping effective and nontoxic range: 16 to 32 µM
[4]
  Non-toxic range (Chondrocyte): 0.125 to 8 M
[5]; day 7
  dRS, hours after dosing with significant difference: 1 h
[5]; day 14
  dRS, hours after dosing with significant difference: 3 h
[6]; group mean, i.a. weekly
  Bone resorption percent, LFC: 0%
  Bone resorption percent, LTP: 0%
  Bone resorption percent, MFC: 15%
  Bone resorption percent, MTP: 15%
  Bone resorption percent, mean: 8%
  Bone resorption score: 1.0
  Cartilage matrix damage score: 1.0 and 1.0 ± 0.0
  Mean of all cartilage loss: 9.7
  Osteophyte measure: 146.7 µm
  Osteophyte score: 0.7
  Subchondral bone sclerosis: 0.3
  Total joint score w/o matrix: 2.0
  Total joint score with matrix: 3.0 and 3.0 ± 1.2
[6]; meloxicam 100 μg i.a.
  Decrease of total joint score vs vehicle controls: 47%
[7]
  Effective range against Osteoclasts: Not effective

Reference: article PMC4721142, “Randomized controlled studies on the efficacy of antiarthritic agents in inhibiting cartilage degeneration and pain associated with progression of osteoarthritis in the rat” (Arthritis Research & Therapy, 2016)
